Test results from article PMC8890542, “Discovery of novel paeonol-based derivatives against skin inflammation in vitro and in vivo” (Journal of Enzyme Inhibition and Medicinal Chemistry, 2022).

Assays:
[1] = Human liver microsomes stability assay in vitro; type: in vitro ADME
Protocol: The livers were homogenised initially in a Tris (0.1 M)/KCl (0.1 M)/EDTA (1 mM)/butylated sodium hydroxytoluene (BHT) (0.02 mM) buffer. Add 1.5 µL control/test compound B12 working solution to 238.5 µL liver microsome working solution, gently mix. Pre-incubate at 37 °C for 5 min. Start the reaction by adding 60 µL NADPH working solution. Mix by pipetting up and down. At each time point: 0, 5, 15, 30 and 60 min, remove 30 µL of reaction mixture to 300 µL of quenching solution. Vortex vigorously for ∼1 min and centrifuge at 4000 rpm at 4 °C for 15 min. Remove 100 µL of the supernatant and mixed with 100 µL distilled water for LC-MS/MS analysis.

JNK [2] = assay: Western blot, SUV-induced JNK phosphorylation in HaCaT cells; type: cell-based, human; conditions: SUV (40 kJ/m^2) 30 min
Protocol: (§1) HaCaT cells were seeded into 6-well plate with 2 × 10^6 cells per well. After 24 h culture and 12 h starvation, they were stimulated with SUV irradiation. The cells were irritated with 40 KJ/m^2 doses of SUV at 30 min. In order to study the effect of compound B12, the cells were starved in serum-free medium for 12 h, and then pre-treated with compound B12 (2.5, 5, 10 μM) for 6 h before SUV irradiation. Follow the same steps as above to transfer the electrophoretic band to PVDF membrane. All steps were performed in the same way as above except that the types of primary and secondary antibodies were different.

γ-H2AX = assay: Western blot, SUV-induced γ-H2AX in HaCaT cells; type: cell-based, human; conditions: 2.5 μM to 10 μM, 6 h before 40 KJ/m^2 SUV
Protocol: as §1

COX-2 = assay: Western blot of COX-2 in LPS-stimulated RAW264.7 cells; type: cell-based, mouse; conditions: 2.5, 5, 10 µM, 1 h, LPS 24 h
Protocol: (§2) RAW264.7 cells were seeded into 6-well plate with 2 × 10^6 cells per well and maintained about 24 h, and then pre-treated with compound B12 (2.5, 5, 10 µM) for 1 h, co-treated with LPS (0.5 µg/mL) for 0.5 h or 24 h. Western blotting assay was performed as the method described previously. Briefly, the cells were lysed in […] RIPA cell lysis buffer (Contains PMSF and phosphatase inhibitors, Beyotime China) and incubated on ice for 30 min. Collecting supernatant by centrifugation. The same amount of protein was separated by SDS-PAGE and transferred to PVDF membrane (GE Healthcare, Amersham, UK). The blotted membrane incubated with the primary antibodies and allowed to react for an additional 16 h at 4 °C. All antibodies obtain from Cell Signalling Technology, Boston, MA. The membranes incubated with a 1:5000 dilutions of HRP-conjugated secondary antibody (Beyotime Biotech, Nantong, China) for 1 h at room temperature. Signals were visualised using ECL system (Thermo Fisher Scientific, Waltham, MA).

p38 [3] = assay: Western blot, SUV-induced p38 phosphorylation in HaCaT cells; type: cell-based, human; conditions: SUV (40 kJ/m^2) 30 min
Protocol: as §1

STAT3 = assay: Western blot, SUV-induced STAT3 phosphorylation in HaCaT cells; type: cell-based, human; conditions: 2.5 μM to 10 μM, 6 h before 40 KJ/m^2 SUV
Protocol: as §1

JNK [4] = assay: Western blot, LPS-induced JNK phosphorylation in RAW264.7; type: cell-based, mouse; conditions: LPS (0.5 μg/mL) 30 min
Protocol: as §2

RAW264.7 cells = assay: Cell viability assay (MTT), RAW264.7; type: cell-based, mouse; conditions: 24 h, read-out: Cytotoxicity IC50 with RAW264.7
Protocol: (§3) RAW264.7 cells (1 × 10^4 cells/well) were seeded into 96-well plate and used for experiments after 24 h. Compounds (4 µM, 20 µM and 100 µM) treated cell for 24 h. Forty microliters of MTT solution (5 mg/mL, Sigma-Aldrich) was then added and incubated for an additional 4 h. After 4 h, cell culture supernatants were removed and DMSO (150 µL) was added into per well for dissolving the resulting crystals. Shaking about 1 0 ∼ 15 min and the absorbance at 492 nm was measured by a microplate reader (MQX200, Bio-Tek, Winooski, VT). At least three independent experiments were performed for the determination of IC50 values, which were shown as mean ± SD. All experimental data were analysed by using GraphPad Prism software, version 8.0 (GraphPad Inc.).

[5] = Cell viability assay (MTT), RAW264.7; type: cell-based, mouse; conditions: mouse, RAW264.7 cells, read-out: Cytotoxicity IC50 with RAW264.7
Protocol: as §3

TOPK = biological target: T1, TOPK (Homo sapiens, UniProt Q96KB5); assay: Cellular thermal shift assay (CETSA); type: binding; conditions: especially at 57 °C
T1 construct: endogenous in cells
T1 sequence (Q96KB5 1-322): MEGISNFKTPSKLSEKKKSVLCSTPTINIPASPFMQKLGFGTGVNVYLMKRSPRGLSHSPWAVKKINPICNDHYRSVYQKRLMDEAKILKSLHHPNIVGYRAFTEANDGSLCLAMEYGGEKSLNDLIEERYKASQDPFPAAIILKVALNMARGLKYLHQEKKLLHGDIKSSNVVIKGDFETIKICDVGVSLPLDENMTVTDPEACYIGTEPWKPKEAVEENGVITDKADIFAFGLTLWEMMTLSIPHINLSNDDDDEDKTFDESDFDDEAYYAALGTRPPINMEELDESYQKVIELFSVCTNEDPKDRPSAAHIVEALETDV
Description: Based on the ligand-induced thermal stabilisation of target proteins, the cellular thermal shift assay (CETSA) assay is likely to validate drug binding, off-target effects or drug resistance in cell lines. To further detect the direct binding of compound B12 with TOPK protein, CETSA was used in this study.

LPS-induced HaCaT cells = assay: Hyperproliferation assay, LPS-stimulated HaCaT cells (MTT); type: cell-based, human; conditions: pre-treated 6 h, LPS 24 h
Protocol: HaCaT cells were seeded in 96-well plates and cultured at 37 °C in a humidified 5% CO2 atmosphere. When the cell confluency reached 60–70%, HaCaT cells were then starved in serum-free DMEM for 12 h before stimulated by 100 ng/mL LPS for 24 h to mimic hyperproliferative psoriatic keratinocytes. The cell viability was measured by MTT method. Results are expressed as the percentage survival of cells in the cell treated group and the untreated control group (without the tested compound and LPS).

P38 [6] = assay: Western blot, LPS-induced p38 phosphorylation in RAW264.7; type: cell-based, mouse; conditions: LPS (0.5 μg/mL) 30 min
Protocol: as §2

[7] = Cell viability assay (MTT), LO2; type: cell-based; conditions: human, LO2 cells, read-out: Cytotoxicity IC50 with LO2
iNOS = assay: Western blot of iNOS in LPS-stimulated RAW264.7 cells; type: cell-based, mouse; conditions: 2.5, 5, 10 µM, 1 h, LPS 24 h
Protocol: as §2

[8] = test system: IMQ-induced psoriasis mouse model; assay: IMQ-induced psoriasis-like skin inflammation mouse model; type: in vivo, BALB/c mice
Description: During treatment for 7 days, to score the severity of inflammation of mouse skin, an objective scoring system was developed based on the clinical psoriasis area and severity index. Erythema, scaling, and thickening were scored independently from 0 to 4 as follows: 0, none; 1, slight; 2, moderate; 3, marked; 4, very marked and weight loss. The cumulative score (erythema plus scaling plus thickening) served to indicate the severity of inflammation (scale 0 ∼ 12). On the 8th day, the mice were taken eyeball blood and back skin. One-half of the samples were immediately fixed in 4% paraformaldehyde and for haematoxylin and eosin (H&E) staining. The other samples were put in a −80 °C freezer. Before used, they were placed at room temperature for 30 min. After that, they were added 1 × PBS proportionally, homogenised and centrifuged. The supernatant was collected and used for ELISA assay and Western blot assay. […] The histological image was obtained using 3[sequence]’s Slide Converter (3[sequence], Hungary).

[9] = test system: LPS-induced nitric oxide production in RAW264.7 cells; assay: LPS-induced NO production, Griess Reagent assay; type: cell-based, mouse; conditions: Mus musculus
Protocol: RAW264.7 cells (7 × 10^4 cells/well) were seeded into 48-well plate and used for experiments after 24 h. […] After 24 h collect cell supernatant, NO production was measured using Griess Reagent assay (Beyotime). Griess reagent were mixed at a ratio of 1:1, and reacted at room temperature for 15 min. Measurement of absorbance at […] with enzyme reader. At least three independent experiments were performed for the determination of IC50 values, which were shown as mean ± SD. All experimental data were analysed by using GraphPad Prism software, version 8.0 (GraphPad Inc.).

NF-κB p65 = assay: Western blot, LPS-induced NF-κB p65 translocation in RAW264.7; type: cell-based, mouse; conditions: LPS (0.5 μg/mL) 30 min
Protocol: as §2

Q: With `COc1cc(O)c(C(C)=O)cc1NC(=O)Nc1cccc(C(F)(F)F)c1` [Compound B12, 1–(5-acetyl-4-hydroxy-2-methoxyphenyl)-3–(3-(trifluoromethyl)phenyl) urea] as the molecule, how does the CLhep ([1]; human) read?
A: 8.5 mL/min/kg

Q: What about the half-life ([1]; human liver microsomes) of the same molecule?
A: 1.85 h

Q: And the microsomal CLint ([1]; human liver microsomes)?
A: 12.5 µL/min/mg

Q: And the “Phosphorylation of JNK, SUV-induced” value (JNK [2])?
A: inhibited

Q: And the “Level of phosphorylated γ-H2AX” value (γ-H2AX)?
A: gradually decreased

Q: And the “Expression of COX-2” value (COX-2)?
A: inhibited by compound B12 in a dose-dependent manner

Q: What about the “Phosphorylation of p38, SUV-induced” value (p38 [3]) of the same molecule?
A: inhibited

Q: And the “Level of phosphorylated STAT3” value (STAT3)?
A: gradually decreased

Q: And the JNK protein phosphorylation (JNK [4])?
A: inhibited

Q: What about the IC50 (RAW264.7 cells) of the same molecule?
A: > 100 µM

Q: And the IC50 at 24 h [5]?
A: > 50 µM

Q: What about the “Thermal stability of TOPK (CETSA)” value (TOPK) of the same molecule?
A: stabilised

Q: What about the “Excessive proliferation of LPS-induced HaCaT cells” value (LPS-induced HaCaT cells) of the same molecule?
A: inhibited excessive proliferation of LPS-induced HaCaT cells in a dose dependent manner

Q: And the P38 protein phosphorylation (P38 [6])?
A: inhibited

Q: What about the IC50 at 24 h [7] of the same molecule?
A: > 100 µM

Q: And the “Expression of iNOS” value (iNOS)?
A: inhibited by compound B12 in a dose-dependent manner

Q: What about the “Pathological reduction, H&E of skin tissue” value ([8]; 20 mg/kg, intragastric once a day, 7 days) of the same molecule?
A: moderate pathological reduction

Q: And the “Pathological reduction, H&E of skin tissue” value ([8]; 40 mg/kg, intragastric once a day, 7 days)?
A: high pathological reduction

Q: What about the “Expression of related proteins (p-STAT3, p-TOPK, TOPK, p-p38, p-JNKs, PCNA, p-H2AX) in mouse skin tissues” value ([8]; 20 and 40 mg/kg, Western blot) of the same molecule?
A: decreased significantly

Q: What about the “Experimental symptoms and PASI score” value ([8]; B12 20 and 40 mg/kg, Dex 20 mg/kg, intragastric once a day, 7 days) of the same molecule?
A: significantly attenuated experimental symptoms and PASI score in a dose-dependent manner

Q: What about the IC50 ([9]; LPS (0.5 μg/mL) 24 h) of the same molecule?
A: 2.14 µM

Q: What about the inhibition at 10 µM ([9]; compounds 10 μM, 1 h, then LPS (0.5 μg/mL) 24 h, read-out: Inhibition rate±SD (%) against NO production) of the same molecule?
A: 95.5 ± 3.26%

Q: And the “NF-κB p65 translocation into the nucleus” value (NF-κB p65)?
A: inhibited
